Legend:
Assay in all cases: phosphate release assay (EnzChek phosphate kit)
Conditions in all cases: partially purified leaf extract; 100 mM MOPS, 1 mM MgCl2, 10% glycerol, 2 mM sodium molybdate, 200 mM NaF; glyphosate 0-1000 μM; range is 95% CI; read-out: I50(μM)(95% CI)^a
[1] = test system: T1, EPSPS (A. sterilis UE accession); assay type: biochemical, Avena sterilis
T1 construct: homeologous copies not distinguished
From the text: phosphate release assay (EnzChek phosphate kit) on EPSPS (A. sterilis UE accession)

[2] = target: T2, EPSPS (L. rigidum S population) (Lolium rigidum, UniProt A0A5B9T5S8); assay type: biochemical
T2 sequence (A0A5B9T5S8 61-505): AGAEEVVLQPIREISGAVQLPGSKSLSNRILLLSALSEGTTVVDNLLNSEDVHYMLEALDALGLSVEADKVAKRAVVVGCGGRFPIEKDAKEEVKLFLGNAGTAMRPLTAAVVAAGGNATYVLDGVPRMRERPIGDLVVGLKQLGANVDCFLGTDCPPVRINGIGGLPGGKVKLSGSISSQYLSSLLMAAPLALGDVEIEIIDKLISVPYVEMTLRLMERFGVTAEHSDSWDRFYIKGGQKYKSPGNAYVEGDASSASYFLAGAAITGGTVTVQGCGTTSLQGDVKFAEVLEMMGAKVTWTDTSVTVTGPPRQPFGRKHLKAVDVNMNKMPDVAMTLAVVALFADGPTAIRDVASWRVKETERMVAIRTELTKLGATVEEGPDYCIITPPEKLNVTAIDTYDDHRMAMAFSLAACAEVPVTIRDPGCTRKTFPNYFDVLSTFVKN
From the text: phosphate release assay (EnzChek phosphate kit) on EPSPS (L. rigidum S population)

[3] = test system: T3, EPSPS (A. sterilis E accession); assay type: biochemical, Avena sterilis
T3 construct: homeologous copies not distinguished
From the text: phosphate release assay (EnzChek phosphate kit) on EPSPS (A. sterilis E accession)

## O=C(O)CNCP(=O)(O)O [glyphosate]
[1]
  IC50: 42.4 µM
[2]
  IC50: 5.1 µM
[3]
  IC50: 53.5 µM
